Reference: patent USRE39591E1, “6-O-substituted ketolides having antibacterial activity” (Abbott Laboratories, priority 1996, dated 2007)
Values after ≈ are worked out from the molar mass of the structure shown.

Tested on: up to 32 different microorganisms
Assay: in vitro antibacterial activity (MIC), agar dilution on Brain Heart Infusion (BHI) agar with Steers replicator
Type: cell-based
Details: unit assumed
Procedure, shortened: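 Agar dilution, 12 plates/compound; inoc 1:100 (1:10 Micrococcus, Streptococcus); 35°-37° C, 20–24 h. Erythromycin A reference plate plus drug-free growth controls at start and end. Endpoint = no growth/slight haze/sparse colonies.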

CCC1OC(=O)C(C)C(=O)C(C)C(OC2OC(C)CC(N(C)C)C2O)C(C)(OCC=Cc2cnc3ccc([N+](=O)[O-])cc3c2)CC(C)C(=O)C(C)C2NC(=O)OC12C (centres unmarked) [Example 195, R is —CH2CH═CH-(6-nitroquinolyl)]
MIC (Candida albicans CCH 442 (code TT)): > 100 µg/mL
MIC (Enterococcus faecism ATCC 8043 (code II)): 0.05 µg/mL (≈ 0.0617 µM)
MIC (Escherichia coli DC-2 (code SS)): 50 µg/mL (≈ 61.7 µM)
MIC (Escherichia coli JUHL (code QQ)): 50 µg/mL (≈ 61.7 µM)
MIC (Escherichia coli SS (code RR)): 0.2 µg/mL (≈ 0.247 µM)
MIC (Micrococcus luteus ATCC 4698 (code PP)): 0.1 µg/mL (≈ 0.123 µM)
MIC (Micrococcus luteus ATCC 9341 (code OO)): 0.01 µg/mL (≈ 0.0123 µM)
MIC (Mycobacterium smegmatis ATCC 114 (code UU)): 0.39 µg/mL (≈ 0.481 µM)
MIC (Nocardia Asteroides ATCC9970 (code VV)): 0.05 µg/mL (≈ 0.0617 µM)
MIC (Staphylococcus aureus 1775 (code GG)): > 100 µg/mL
MIC (Staphylococcus aureus A-5278 (code CC)): > 100 µg/mL
MIC (Staphylococcus aureus ATCC 6538P (code AA)): 0.05 µg/mL (≈ 0.0617 µM)
MIC (Staphylococcus aureus CMX 553 (code FF)): 0.05 µg/mL (≈ 0.0617 µM)
MIC (Staphylococcus aureus CMX 642A (code DD)): 0.05 µg/mL (≈ 0.0617 µM)
MIC (Staphylococcus aureus NCTC10649M (code EE)): 0.05 µg/mL (≈ 0.0617 µM)
MIC (Staphylococcus epidermidis 3519 (code HH)): 0.05 µg/mL (≈ 0.0617 µM)
MIC (Streptococcus agalactiae CMX 508 (code KK)): 0.05 µg/mL (≈ 0.0617 µM)
MIC (Streptococcus bovis A-5169 (code JJ)): 0.01 µg/mL (≈ 0.0123 µM)
MIC (Streptococcus pyogenes 930 (code MM)): 1.56 µg/mL (≈ 1.92 µM)
MIC (Streptococcus pyogenes EES61 (code LL)): 0.02 µg/mL (≈ 0.0247 µM)
MIC (Streptococcus pyogenes PIU 2548 (code NN)): 0.1 µg/mL (≈ 0.123 µM)

CCC1OC(=O)C(C)C(=O)C(C)C(OC2OC(C)CC(N(C)C)C2O)C(C)(OCC=Cc2cnc3ccc(O)cc3c2)CC(C)C(=O)C(C)C2NC(=O)OC12C (centres unmarked) [Example 208, R is —CH2CH═CH-(6-hydroxy-3-quinolyl)]
MIC (organism code AA): 0.1 µg/mL (≈ 0.128 µM)
MIC (organism code BB): 0.39 µg/mL (≈ 0.499 µM)
MIC (organism code CC): > 100 µg/mL
MIC (organism code DD): 0.2 µg/mL (≈ 0.256 µM)
MIC (organism code EE): 0.2 µg/mL (≈ 0.256 µM)
MIC (organism code FF): 0.2 µg/mL (≈ 0.256 µM)
MIC (organism code GG): > 100 µg/mL
MIC (organism code HH): 0.2 µg/mL (≈ 0.256 µM)
MIC (organism code II): 0.1 µg/mL (≈ 0.128 µM)
MIC (organism code JJ): 0.01 µg/mL (≈ 0.0128 µM)
MIC (organism code KK): 0.01 µg/mL (≈ 0.0128 µM)
MIC (organism code LL): 0.01 µg/mL (≈ 0.0128 µM)
MIC (organism code MM): 0.78 µg/mL (≈ 0.998 µM)
MIC (organism code NN): 0.39 µg/mL (≈ 0.499 µM)
MIC (organism code OO): 0.01 µg/mL (≈ 0.0128 µM)
MIC (organism code PP): 0.1 µg/mL (≈ 0.128 µM)
MIC (organism code QQ): 25 µg/mL (≈ 32 µM)
MIC (organism code RR): 0.39 µg/mL (≈ 0.499 µM)
MIC (organism code SS): 50 µg/mL (≈ 63.9 µM)
MIC (organism code TT): > 100 µg/mL
MIC (organism code UU): 0.78 µg/mL (≈ 0.998 µM)
MIC (organism code VV): 0.2 µg/mL (≈ 0.256 µM)
MIC (organism code WW): 2 µg/mL (≈ 2.56 µM)
MIC (organism code XX): 0.03 µg/mL (≈ 0.0384 µM)
MIC (organism code YY): 0.03 µg/mL (≈ 0.0384 µM)
MIC (organism code ZZ): 4 µg/mL (≈ 5.12 µM)
MIC (organism code ZZA): 1 µg/mL (≈ 1.28 µM)

CCC1OC(=O)C(C)C(=O)C(C)C(OC2OC(C)CC(N(C)C)C2O)C(C)(OCC=Cc2ccc3cc(OCCBr)ccc3c2)CC(C)C(=O)C(C)C2NC(=O)OC12C (centres unmarked) [Example 288, Compound of Formula (IX): L is CO, T is NH2, R is —CH2CH═CH-(6-(2-bromoethoxy)-2-naphthyl)]
MIC (organism code AA): 0.1 µg/mL
MIC (organism code BB): 0.2 µg/mL
MIC (organism code CC): > 100 µg/mL
MIC (organism code DD): 0.39 µg/mL
MIC (organism code EE): 0.39 µg/mL
MIC (organism code FF): 0.39 µg/mL
MIC (organism code GG): 100 µg/mL
MIC (organism code HH): 0.39 µg/mL
MIC (organism code II): 0.39 µg/mL
MIC (organism code JJ): 0.01 µg/mL
MIC (organism code KK): 0.02 µg/mL
MIC (organism code LL): 0.1 µg/mL
MIC (organism code MM): 12.5 µg/mL
MIC (organism code NN): 0.39 µg/mL
MIC (organism code OO): 0.02 µg/mL
MIC (organism code PP): 0.39 µg/mL
MIC (organism code QQ): > 100 µg/mL
MIC (organism code RR): 3.1 µg/mL
MIC (organism code SS): > 100 µg/mL
MIC (organism code TT): > 100 µg/mL
MIC (organism code UU): 0.39 µg/mL
MIC (organism code VV): 0.39 µg/mL
MIC (organism code WW): 8 µg/mL
MIC (organism code XX): 0.125 µg/mL
MIC (organism code YY): 0.125 µg/mL
MIC (organism code ZZ): 16 µg/mL
MIC (organism code ZZA): 1 µg/mL

CC[C@H]1OC(=O)[C@H](C)C(=O)[C@H](C)[C@@H](O[C@@H]2O[C@H](C)C[C@H](N(C)C)[C@H]2O)[C@@](C)(OCC=NOCc2cnc3ccccc3c2)C[C@@H](C)C(=O)[C@H](C)[C@H]2NC(=O)O[C@@]21C [Example 233, Compound of Formula (IX): L is CO, T is NH, R is —CH2CH═NOCH2(3-quinolyl)]
MIC (organism code AA): 0.1 µg/mL
MIC (organism code BB): 0.1 µg/mL
MIC (organism code CC): > 100 µg/mL
MIC (organism code DD): 0.2 µg/mL
MIC (organism code EE): 0.2 µg/mL
MIC (organism code FF): 0.1 µg/mL
MIC (organism code GG): > 100 µg/mL
MIC (organism code HH): 0.2 µg/mL
MIC (organism code II): 0.05 µg/mL
MIC (organism code JJ): 0.02 µg/mL
MIC (organism code KK): 0.02 µg/mL
MIC (organism code LL): 0.02 µg/mL
MIC (organism code MM): 100 µg/mL
MIC (organism code NN): 0.1 µg/mL
MIC (organism code OO): 0.02 µg/mL
MIC (organism code PP): 0.3 µg/mL
MIC (organism code QQ): 50 µg/mL
MIC (organism code RR): 0.39 µg/mL
MIC (organism code SS): 50 µg/mL
MIC (organism code TT): > 100 µg/mL
MIC (organism code UU): 0.78 µg/mL
MIC (organism code VV): 0.05 µg/mL
MIC (organism code WW): 2 µg/mL
MIC (organism code XX): 0.03 µg/mL
MIC (organism code YY): 0.03 µg/mL
MIC (organism code ZZ): 64 µg/mL
MIC (organism code ZZA): 0.25 µg/mL

CC[C@H]1OC(=O)[C@H](C)C(=O)[C@H](C)[C@@H](O[C@@H]2O[C@H](C)C[C@H](N(C)C)[C@H]2O)[C@@](C)(OCC#Cc2ccc3nc(C)ccc3c2)C[C@@H](C)C(=O)[C@H](C)[C@H]2NC(=O)O[C@@]21C [Example 255, Compound of Formula (IX): L is CO, T is NH, R is —CH2—C≡C-(2-methyl-6-quinolyl)]
MIC (organism code AA): 0.1 µg/mL
MIC (organism code BB): 0.2 µg/mL
MIC (organism code CC): > 100 µg/mL
MIC (organism code DD): 0.2 µg/mL
MIC (organism code EE): 0.2 µg/mL
MIC (organism code FF): 0.2 µg/mL
MIC (organism code GG): > 100 µg/mL
MIC (organism code HH): 0.1 µg/mL
MIC (organism code II): 0.05 µg/mL
MIC (organism code JJ): 0.02 µg/mL
MIC (organism code KK): 0.02 µg/mL
MIC (organism code LL): 0.02 µg/mL
MIC (organism code MM): 50 µg/mL
MIC (organism code NN): 0.2 µg/mL
MIC (organism code OO): 0.05 µg/mL
MIC (organism code PP): 0.2 µg/mL
MIC (organism code QQ): 100 µg/mL
MIC (organism code RR): 0.3 µg/mL
MIC (organism code SS): > 100 µg/mL
MIC (organism code TT): > 100 µg/mL
MIC (organism code UU): 3.1 µg/mL
MIC (organism code VV): 0.05 µg/mL
MIC (organism code XX): 0.03 µg/mL
MIC (organism code YY): 0.03 µg/mL
MIC (organism code ZZ): 16 µg/mL
MIC (organism code ZZA): 0.25 µg/mL
